Test results reported in PubChem BioAssay (NCI).
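Test compounds were applied to cells in 96-well plates for 48 hours at 5 doses. The concentration for 50% growth inhibition is given as GI50. Definition used: TGI = concentration required for complete inhibition of growth.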

What was measured:
Assay in all cases: NCI-60 cell line screen, 48 h
[1] = test system: ACHN renal
[2] = test system: CCRF-CEM leukemia
[3] = test system: EKVX NSCLC
[4] = test system: OVCAR-4 ovarian
[5] = test system: RXF 393 renal
[6] = test system: SF-295 CNS
[7] = test system: SF-539 CNS
[8] = test system: SK-MEL-5 melanoma
[9] = test system: HCT-116 colon
[10] = test system: MDA-MB-231 breast

SMILES	TGI [1] [µM]	TGI [2] [µM]	TGI [3] [µM]	TGI [4] [µM]	TGI [5] [µM]	TGI [6] [µM]	TGI [7] [µM]	TGI [8] [µM]	TGI [9] [µM]	GI50 [1] [µM]	GI50 [3] [µM]	GI50 [9] [µM]	GI50 [10] [µM]	TGI [10] [µM]	GI50 [4] [µM]	GI50 [5] [µM]	GI50 [6] [µM]	GI50 [7] [µM]	GI50 [8] [µM]	GI50 [2] [µM]
Fc1ccccc1C1CC(C(c2ccccc2)c2ccccc2)=Nc2ccccc2S1 (stereo not given)	43.6	5.57	24.5	32.9	17.2	26.5	50.4	24.9	–	–	–	–	–	–	–	–	–	–	–	–
O=c1nc2cc(-c3ccccc3)[nH]c2nn1-c1c(Cl)cc(Cl)cc1Cl	–	76.2	74	–	–	93.2	33.5	56.4	40.1	–	–	–	–	–	–	–	–	–	–	–
COc1cc(C2C(C(=O)Nc3ccccc3)=C(C)NC(C)=C2C(=O)Nc2ccccc2)ccc1O	> 100	–	> 100	> 100	> 100	> 100	52.9	–	> 100	–	–	–	–	–	–	–	–	–	–	–
COc1ccc(O)c2c1C(=O)CCCC2=O	> 100	> 100	> 100	> 100	–	> 100	> 100	> 100	> 100	–	–	–	–	–	–	–	–	–	–	–
COc1ccc(-c2ccc(-c3ccc(C(=N)N)cn3)s2)cc1Cl	3	–	3.41	3.3	3.87	3.27	3.11	3.32	3.82	1.64	1.75	1.84	1.62	3.23	1.61	1.98	1.72	1.64	1.82	–
C[Si](C)(C)/C=C/CN1C(=O)CCC1O (stereo not given)	> 100	> 100	> 100	> 100	> 100	> 100	> 100	> 100	> 100	–	–	–	–	–	–	–	–	–	–	–
CN(O)C(=O)Cc1ccccc1	> 100	> 100	–	> 100	> 100	> 100	> 100	> 100	> 100	–	–	–	–	–	–	–	–	–	–	–
C=C(C)C1/C=C(/C(C)C)CC[C@]2(C)O[C@@H]2CC[C@H](C)CC1=O (stereo not given in full)	> 100	37.3	–	> 100	> 100	> 100	–	> 100	42.2	72.4	–	17.7	–	–	72.4	32	71.4	–	55	18.5
CCNCC(O)c1ccc(N)c([N+](=O)[O-])c1 (stereo not given)	> 100	> 100	> 100	> 100	–	> 100	> 100	> 100	> 100	–	–	–	–	> 100	–	–	–	–	–	–
Fc1ccc(-c2ncn(C3CCNCC3)c2-c2ccnc(Oc3cccc(F)c3)n2)cc1	> 25	–	> 25	> 25	> 13.3	> 25	> 25	8.73	> 21.4	8.58	> 25	9.3	9.99	> 25	16.8	5.32	12.4	10.7	4.04	–
COc1cc(Br)c(CC2=NCCc3cc(OC)c(OC)cc32)cc1OC	> 100	> 100	> 100	> 100	–	> 100	87	36	> 100	–	–	–	–	–	–	–	–	–	–	–
COc1ccc(/C=C\c2cc(OC)c(OC)c(OC)c2)c(NS(=O)(=O)c2ccc(C)cc2)c1O	> 59.9	> 100	> 100	> 100	–	–	0.0641	0.195	> 100	0.0874	0.0644	0.0357	0.0516	29.9	0.233	–	0.0509	0.0237	0.0359	0.0407
COc1cc2c(cc1C)n(O)c(C)c(C(=O)C/C(=N/NC(=O)C[N+](C)(C)C)C(=O)Nc1cccc(Cl)c1C)[n+]2=O	> 100	> 100	> 100	> 100	> 100	> 100	> 100	> 100	> 100	–	–	–	–	–	–	–	–	–	–	–
O=c1cccccc1NCCCCNc1cccccc1=O	> 100	> 100	> 100	> 100	–	> 100	–	96.8	> 100	–	–	–	–	–	–	–	–	–	–	–
COc1cccc(C2C(C(=O)Nc3cc(=O)n(C)c(=O)n3C)=C(C)NC(C)=C2C(=O)Nc2cc(=O)n(C)c(=O)n2C)c1O	> 100	> 100	> 100	> 100	> 100	> 100	> 100	> 100	–	–	–	–	–	–	–	–	–	–	–	–
CC1OC(O)C(O)C(O)C1O (stereo not given)	> 100	–	> 100	> 100	> 100	> 100	> 100	> 100	> 100	–	–	–	–	> 100	–	–	–	–	–	–
Cc1ccc(Nc2ccc(Nc3ccc(C)cc3)c3c2C(=O)c2c(O)ccc(O)c2C3=O)cc1	> 100	> 100	> 100	> 100	> 100	> 100	> 100	> 100	> 100	–	–	–	–	–	–	–	–	–	–	–
O=[N+]([O-])c1ccccc1C1N2CCCCC2[C@@H]2c3[nH]c4ccccc4c3CCN12 (stereo not given in full)	31.3	30.4	41.3	32.3	26.4	29.8	25.1	26.2	–	–	–	–	–	–	–	–	–	–	–	–
O=c1[nH]c(=S)[nH]c(O)c1/C=C1\C=CC=N1	29.6	75.5	56.7	32	9.6	82.4	40.5	> 100	18.7	–	–	–	–	–	–	–	–	–	–	–
O=C1/C(=C/c2cccs2)CCC/C1=C\c1cccs1	> 100	–	–	45.2	> 100	> 100	> 100	> 100	> 100	57	–	> 100	44.6	> 100	14.6	26.4	66.5	59.2	> 100	–
CC[C@H](C)[C@H](NC(=O)C12C3C4C1C1C2C3C41NC(C)=O)C(=O)N(C)[C@H](C[C@@H](OC(C)=O)c1nc(C(=O)N[C@@H](Cc2ccccc2)C[C@H](C)C(=O)OC)cs1)C(C)C (stereo not given in full)	> 14.3	> 14.3	> 14.3	> 14.3	–	> 14.3	1.01	2.98	> 14.3	2.53	2.81	0.354	0.435	> 14.3	1.38	–	0.494	0.349	0.152	0.361

SMILES	TGI [1] [µM]	TGI [2] [µM]	TGI [3] [µM]	TGI [4] [µM]	TGI [5] [µM]	TGI [6] [µM]	TGI [7] [µM]	TGI [8] [µM]	TGI [9] [µM]	GI50 [1] [µM]	GI50 [3] [µM]	GI50 [9] [µM]	GI50 [10] [µM]	TGI [10] [µM]	GI50 [4] [µM]	GI50 [5] [µM]	GI50 [6] [µM]	GI50 [7] [µM]	GI50 [8] [µM]	GI50 [2] [µM]
CCC1(CN(C)C)CC/C(=C\c2ccc3c(c2)OCO3)C1=O (stereo not given)	> 100	> 100	> 100	> 100	> 100	> 100	> 100	> 100	> 100	–	–	–	–	–	–	–	–	–	–	–
Cc1nc(C(N)=S)sc1C(=O)/C=C/c1cccc(O)c1	> 100	89.2	> 100	–	> 100	> 100	> 100	> 100	–	–	–	–	–	–	–	–	–	–	–	–
CCC1(OC(C)=O)C(=O)OCc2c1cc1n(c2=O)Cc2cc3ccccc3nc2-1 (stereo not given)	12.1	1.93	> 100	> 100	> 22.6	> 100	5.23	4	> 37.5	–	–	–	–	–	–	–	–	–	–	–
Cn1c(=O)c2[nH]c(COc3ccc(C(C)(C)C)cc3)nc2n(C)c1=O	89.8	–	> 100	–	> 100	> 100	> 100	20.6	> 100	9.58	3.34	10.2	41.4	> 100	–	57	4.03	36.7	4.68	–
COc1ccc(/C=C2\COc3ccc(-c4ccccc4)cc3C2=O)cc1O	13.1	> 100	> 100	30.8	–	21.7	6.38	3.68	3.53	3.13	6.71	1.72	3.98	20.2	4.18	–	4.4	2.45	1.51	2.03
Cc1cc(C)c(C(=O)OC(c2ccccc2)C(c2ccccc2)N2CCOCC2)c(C)c1 (stereo not given)	> 100	> 100	> 100	–	> 100	> 100	> 100	–	> 100	–	–	–	–	–	–	–	–	–	–	–
COc1ccc(NC(=O)C(=O)C2NC(=S)NC2=O)c(OC)c1 (stereo not given)	> 100	–	> 100	> 100	> 100	> 100	> 100	–	> 100	–	–	–	–	–	–	–	–	–	–	–
O=[N+]([O-])c1ccc(Cl)c(C2SCc3nc4ccccc4n32)c1 (stereo not given)	> 100	> 100	> 100	–	> 100	> 100	> 100	30.4	> 100	–	–	–	–	–	–	–	–	–	–	–
CC[C@@H]1OC2(C)CC(S(=O)(=O)c3ccccc3)CC1O2 (stereo not given in full)	> 100	> 100	> 100	> 100	> 100	> 100	> 100	> 100	> 100	–	–	–	–	–	–	–	–	–	–	–
CCc1cccc(C)c1NC(=O)NS(=O)(=O)c1ccc(C)cc1	> 100	> 100	> 100	> 100	> 100	> 100	> 100	> 100	> 100	–	–	–	–	–	–	–	–	–	–	–
CCOC(=O)C(C[Si](C)(C)C)P(=O)(OCC)OCC (stereo not given)	> 100	> 100	–	> 100	> 100	> 100	> 100	> 100	> 100	–	–	–	–	–	–	–	–	–	–	–
O=C1C(c2ccccc2)=C(c2ccccc2)C(c2ccc(CCCCCCc3ccc(C4=C(c5ccccc5)C(=O)C(c5ccccc5)=C4c4ccccc4)cc3)cc2)=C1c1ccccc1	> 100	> 100	> 100	> 100	79.7	> 100	> 100	> 100	> 100	–	–	–	–	–	–	–	–	–	–	–
O=C(NNS(=O)(=O)c1cc(C(F)(F)F)cc(C(F)(F)F)c1)c1cnn(-c2ccc(Cl)cc2)c1C(F)(F)F	51.2	–	43.2	> 100	–	44	33.5	29.6	29.6	21.6	16	15.5	19.6	40.3	38.3	–	14.9	18.4	14.3	–
O=C1C2=C(c3ccccc31)C(c1ccccc1Cl)N1C(=O)CSC1=N2 (stereo not given)	> 100	> 100	> 100	> 100	–	> 100	> 100	> 100	> 100	–	–	–	–	–	–	–	–	–	–	–
COc1ccc(C(O)c2cc3c(N)c(C(=O)Nc4cccc(Br)c4)sc3nc2C)cc1 (stereo not given)	> 46.2	> 100	> 100	> 84.2	–	> 31.7	0.0833	0.47	16.8	0.23	0.197	0.107	0.104	1.63	0.224	–	0.11	0.0248	0.123	0.121
Cc1ccc(NC(=O)C(=O)Cc2nc3ccccc3o2)c(C)c1	> 100	–	> 100	> 100	> 100	> 100	> 100	–	> 100	–	–	–	–	–	–	–	–	–	–	–
COC(=O)C1=C(C(=O)OC)C2(C(=O)OC)OC1(OC)C(C1(C(=O)OC)C(C(=O)OC)=C1C(=O)OC)=C2C(=O)OC (stereo not given)	> 100	> 100	> 100	–	> 100	> 100	> 100	> 100	> 100	–	–	–	–	–	–	–	–	–	–	–
CC1=C2C(c3ccccc3)(c3ccccc3)C3C=CC2(C=N3)N(C(=O)NC2CCCCC2)C1=O (stereo not given)	33.8	36.1	28.7	31.5	–	31.2	30.7	30.5	29.4	–	–	–	–	–	–	–	–	–	–	–
COC1=C(OC)CCC(/C(C#N)=C/c2ccc(OC)c(OC)c2)=C1	> 100	> 100	–	> 100	92.9	> 100	> 100	> 100	> 100	–	–	–	–	–	–	–	–	–	–	–
CCCCCCCCCC(=O)CC(=O)c1c(O)cccc1O	83.4	61	86.9	> 100	72.1	98.2	> 100	–	> 100	–	–	–	–	–	–	–	–	–	–	–
